Square brackets hold non-standard residues; d marks the D form. Peptide text beside a SMILES is read from it. sY = N[C@@H](Cc1ccc(OS(=O)(=O)O)cc1)C(=O)O; Sar = CNCC(=O)O
Experiments:
Prothrombin = Prothrombin (Bos taurus, UniProt P00735); assay: Inhibition of plasma fibrin clot formation by thrombin in vitro.; assay type: functional, cell-free
Prothrombin (Bos taurus) = Prothrombin (Bos taurus) (UniProt P00735); assay: Relative potency for fibrin clot inhibition compared to hirudin55-65.; assay type: functional; design: unit not given here

| Structure (SMILES) | IC50 (Prothrombin) [µM] | Relative potency (Prothrombin (Bos taurus)) |
| --- | --- | --- |
| CC[C@H](C)[C@H](NC(=O)[C@H](CCC(=O)O)NC(=O)[C@H](CCC(=O)O)NC(=O)[C@H](Cc1ccccc1)NC(=O)[C@H](CC(=O)O)NC(=O)CNC(=O)[C@H](CC(=O)O)NC(=O)[C@H](CC(N)=O)NC(=O)[C@H](Cc1cnc[nH]1)NC(=O)[C@H](CO)NC(=O)[C@H](CCC(N)=O)NC(=O)[C@@H]1CCCN1C(=O)[C@H](CCCCN)NC(=O)[C@@H]1CCCN1C(=O)[C@@H](NC(C)=O)[C@@H](C)O)C(=O)N1CCC[C@H]1C(=O)N[C@@H](CCC(=O)O)C(=O)N[C@@H](CCC(=O)O)C(=O)N[C@@H](Cc1ccc(OS(=O)(=O)O)cc1)C(=O)N[C@@H](CC(C)C)C(=O)N[C@@H](CCC(N)=O)C(=O)O | 1.6 | – |
| CC[C@H](C)[C@H](NC(=O)[C@H](CCC(=O)O)NC(=O)[C@H](CCC(=O)O)NC(=O)[C@H](Cc1ccccc1)NC(=O)[C@H](CC(=O)O)NC(=O)CN)C(=O)N[C@H](C)C(=O)N[C@@H](CCC(=O)O)C(=O)N[C@@H](CCC(=O)O)C(=O)N[C@@H](Cc1ccc(OS(=O)(=O)O)cc1)C(=O)N[C@@H](CC(C)C)C(=O)N[C@@H](CCC(N)=O)C(=O)O | 27 | 26 |
| CC[C@H](C)[C@H](NC(=O)[C@H](CCC(=O)O)NC(=O)[C@H](CCC(=O)O)NC(=O)[C@H](CCC(=O)O)NC(=O)[C@@H](N)CC(=O)O)C(=O)N1CCC[C@H]1C(=O)N[C@@H](CCC(=O)O)C(=O)N[C@@H](CCC(=O)O)C(=O)N[C@@H](Cc1ccc(OS(=O)(=O)O)cc1)C(=O)N[C@@H](CC(C)C)C(=O)N[C@@H](CCC(N)=O)C(=O)O (H-DEEEIPEE[sY]LQ-OH) | > 200 | < 2 |
| CC[C@H](C)[C@H](NC(=O)[C@H](CCC(=O)O)NC(=O)[C@H](CCC(=O)O)NC(=O)[C@H](Cc1ccccc1)NC(=O)[C@@H](N)CC(=O)O)C(=O)N1CCC[C@H]1C(=O)N[C@@H](CCC(=O)O)C(=O)N[C@@H](CCC(=O)O)C(=O)N[C@@H](C)C(=O)N[C@@H](CC(C)C)C(=O)N[C@@H](CCC(N)=O)C(=O)O (H-DFEEIPEEALQ-OH) | 13.6 | 52 |
| CC[C@H](C)[C@H](NC(=O)[C@H](CCC(=O)O)NC(=O)[C@H](CCC(=O)O)NC(=O)[C@H](Cc1ccccc1)NC(=O)[C@@H](N)CC(=O)O)C(=O)N1CCC[C@H]1C(=O)N[C@@H](CCC(=O)O)C(=O)N[C@@H](CCC(=O)O)C(=O)N[C@@H](CCC(=O)O)C(=O)N[C@@H](CC(C)C)C(=O)N[C@@H](C)C(=O)O (H-DFEEIPEEELA-OH) | 59.1 | 12 |
| CC[C@H](C)[C@H](NC(=O)[C@H](CCC(=O)O)NC(=O)[C@H](CCC(=O)O)NC(=O)[C@H](CC(C)C)NC(=O)[C@@H](N)CC(=O)O)C(=O)N1CCC[C@H]1C(=O)N[C@@H](CCC(=O)O)C(=O)N[C@@H](CCC(=O)O)C(=O)N[C@@H](Cc1ccc(OS(=O)(=O)O)cc1)C(=O)N[C@@H](CC(C)C)C(=O)N[C@@H](CCC(N)=O)C(=O)O (H-DLEEIPEE[sY]LQ-OH) | > 200 | < 2 |
| CC[C@H](C)[C@H](NC(=O)[C@H](CCC(=O)O)NC(=O)[C@H](CCC(=O)O)NC(=O)[C@H](Cc1ccccc1)NC(=O)[C@H](CC(=O)O)NC(=O)CN)C(=O)N(C)CC(=O)N[C@@H](CCC(=O)O)C(=O)N[C@@H](CCC(=O)O)C(=O)N[C@@H](Cc1ccc(OS(=O)(=O)O)cc1)C(=O)N[C@@H](CC(C)C)C(=O)N[C@@H](CCC(N)=O)C(=O)O (H-GDFEEI[Sar]EE[sY]LQ-OH) | 17.3 | 41 |
| CC(C)C[C@H](NC(=O)[C@H](Cc1ccc(OS(=O)(=O)O)cc1)NC(=O)[C@H](CCC(=O)O)NC(=O)[C@H](CCC(=O)O)NC(=O)[C@@H]1CCCN1C(=O)[C@H](CC(C)C)NC(=O)[C@H](CCC(=O)O)NC(=O)[C@H](CCC(=O)O)NC(=O)[C@H](Cc1ccccc1)NC(=O)[C@H](CC(=O)O)NC(=O)CN)C(=O)N[C@@H](CCC(N)=O)C(=O)O (H-GDFEELPEE[sY]LQ-OH) | 8.3 | 86 |
| CC[C@H](C)[C@H](NC(=O)[C@H](CCC(=O)O)NC(=O)[C@H](CCC(=O)O)NC(=O)[C@H](Cc1ccc(O)cc1)NC(=O)[C@H](CC(=O)O)NC(=O)CN)C(=O)N1CCC[C@H]1C(=O)N[C@@H](CCC(=O)O)C(=O)N[C@@H](CCC(=O)O)C(=O)N[C@@H](Cc1ccc(OS(=O)(=O)O)cc1)C(=O)N[C@@H](CC(C)C)C(=O)N[C@@H](CCC(N)=O)C(=O)O (H-GDYEEIPEE[sY]LQ-OH) | 3.3 | 215 |

Second part, the compound after the results:

| IC50 (Prothrombin) [µM] | Relative potency (Prothrombin (Bos taurus)) | Structure (SMILES) |
| --- | --- | --- |
| > 200 | < 3 | CC[C@H](C)[C@H](NC(=O)[C@H](CCC(=O)O)NC(=O)[C@H](C)NC(=O)[C@H](Cc1ccccc1)NC(=O)[C@@H](N)CC(=O)O)C(=O)N1CCC[C@H]1C(=O)N[C@@H](CCC(=O)O)C(=O)N[C@@H](CCC(=O)O)C(=O)N[C@@H](Cc1ccc(OS(=O)(=O)O)cc1)C(=O)N[C@@H](CC(C)C)C(=O)N[C@@H](CCC(N)=O)C(=O)O (H-DFAEIPEE[sY]LQ-OH) |
| 13.3 | 53 | CC[C@H](C)[C@H](NC(=O)[C@H](C)NC(=O)[C@H](CCC(=O)O)NC(=O)[C@H](Cc1ccccc1)NC(=O)[C@@H](N)CC(=O)O)C(=O)N1CCC[C@H]1C(=O)N[C@@H](CCC(=O)O)C(=O)N[C@@H](CCC(=O)O)C(=O)N[C@@H](Cc1ccc(OS(=O)(=O)O)cc1)C(=O)N[C@@H](CC(C)C)C(=O)N[C@@H](CCC(N)=O)C(=O)O (H-DFEAIPEE[sY]LQ-OH) |
| > 200 | < 3 | CC(C)C[C@H](NC(=O)[C@H](Cc1ccc(OS(=O)(=O)O)cc1)NC(=O)[C@H](CCC(=O)O)NC(=O)[C@H](CCC(=O)O)NC(=O)[C@@H]1CCCN1C(=O)[C@H](C)NC(=O)[C@H](CCC(=O)O)NC(=O)[C@H](CCC(=O)O)NC(=O)[C@H](Cc1ccccc1)NC(=O)[C@@H](N)CC(=O)O)C(=O)N[C@@H](CCC(N)=O)C(=O)O (H-DFEEAPEE[sY]LQ-OH) |
| > 200 | < 3 | CC[C@H](C)[C@H](NC(=O)[C@H](CCC(=O)O)NC(=O)[C@H](CCC(=O)O)NC(=O)[C@H](Cc1ccccc1)NC(=O)[C@@H](N)CC(=O)O)C(=O)N[C@@H](C)C(=O)N[C@@H](CCC(=O)O)C(=O)N[C@@H](CCC(=O)O)C(=O)N[C@@H](Cc1ccc(OS(=O)(=O)O)cc1)C(=O)N[C@@H](CC(C)C)C(=O)N[C@@H](CCC(N)=O)C(=O)O (H-DFEEIAEE[sY]LQ-OH) |
| 18.5 | 38 | CC[C@H](C)[C@H](NC(=O)[C@H](CCC(=O)O)NC(=O)[C@H](CCC(=O)O)NC(=O)[C@H](Cc1ccccc1)NC(=O)[C@@H](N)CC(=O)O)C(=O)N1CCC[C@H]1C(=O)N[C@@H](C)C(=O)N[C@@H](CCC(=O)O)C(=O)N[C@@H](Cc1ccc(OS(=O)(=O)O)cc1)C(=O)N[C@@H](CC(C)C)C(=O)N[C@@H](CCC(N)=O)C(=O)O (H-DFEEIPAE[sY]LQ-OH) |
| 42.8 | 17 | CC[C@H](C)[C@H](NC(=O)[C@H](CCC(=O)O)NC(=O)[C@H](CCC(=O)O)NC(=O)[C@H](Cc1ccccc1)NC(=O)[C@@H](N)CC(=O)O)C(=O)N1CCC[C@H]1C(=O)N[C@@H](CCC(=O)O)C(=O)N[C@@H](C)C(=O)N[C@@H](Cc1ccc(OS(=O)(=O)O)cc1)C(=O)N[C@@H](CC(C)C)C(=O)N[C@@H](CCC(N)=O)C(=O)O (H-DFEEIPEA[sY]LQ-OH) |
| > 200 | < 3 | CC[C@H](C)[C@H](NC(=O)[C@H](CCC(=O)O)NC(=O)[C@H](CCC(=O)O)NC(=O)[C@H](Cc1ccccc1)NC(=O)[C@@H](N)CC(=O)O)C(=O)N1CCC[C@H]1C(=O)N[C@@H](CCC(=O)O)C(=O)N[C@@H](CCC(=O)O)C(=O)N[C@@H](Cc1ccc(OS(=O)(=O)O)cc1)C(=O)N[C@@H](C)C(=O)N[C@@H](CCC(N)=O)C(=O)O (H-DFEEIPEE[sY]AQ-OH) |
| > 200 | < 3 | CC(C)CC(NC(=O)[C@H](Cc1ccc(OS(=O)(=O)O)cc1)NC(=O)[C@H](CCC(=O)O)NC(=O)[C@H](CCC(=O)O)NC(=O)[C@@H]1CCCN1C(=O)C(CC(C)C)NC(=O)[C@H](CCC(=O)O)NC(=O)[C@H](CCC(=O)O)NC(=O)[C@H](Cc1ccccc1)NC(=O)[C@@H](N)CC(=O)O)C(=O)N[C@@H](C)C(=O)O (stereo in doubt) |

Reference: ChEMBL document CHEMBL1123843, “Anticoagulant peptides: nature of the interaction of the C-terminal region of hirudin with a noncatalytic binding site on thrombin” (J Med Chem, 1987)
